This assay addresses T1, CRD DC-SIGN (carbohydrate recognition domain of DC-SIGN, 15N labelled) (Homo sapiens, UniProt Q9NNX6).
T1 sequence (Q9NNX6 250-404 limits assumed): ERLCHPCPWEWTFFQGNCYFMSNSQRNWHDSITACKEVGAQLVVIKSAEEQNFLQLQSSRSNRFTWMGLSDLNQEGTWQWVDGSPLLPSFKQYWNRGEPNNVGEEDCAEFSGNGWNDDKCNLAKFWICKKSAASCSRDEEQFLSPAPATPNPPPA
Put plainly: 1H, […]-HSQC NMR titration. The class given is binding.

By Kd is commonly meant the concentration at which binding is half-saturated. A lower Kd goes with higher affinity. In the case of `NCCCO[C@H]1O[C@H](CO)[C@@H](O)[C@H](O)[C@@H]1O[C@H]1O[C@H](CO)[C@@H](O)[C@H](O)[C@@H]1O[C@H]1O[C@H](CO)[C@@H](O)[C@H](O[C@H]2O[C@H](CO)[C@@H](O)[C@H](O)[C@@H]2O[C@H]2O[C@H](CO)[C@@H](O)[C@H](O)[C@@H]2O)[C@@H]1O` [compound 29, pentasaccharide 29], the Kd is ~600 µM.
In the case of `NCCCO[C@H]1O[C@H](CO)[C@@H](O)[C@H](O)[C@@H]1O[C@H]1O[C@H](CO)[C@@H](O)[C@H](O)[C@@H]1O[C@H]1O[C@H](CO)[C@@H](O)[C@H](O)[C@@H]1O[C@H]1O[C@H](CO)[C@@H](O)[C@H](O[C@H]2O[C@H](CO)[C@@H](O)[C@H](O)[C@@H]2O[C@H]2O[C@H](CO)[C@@H](O)[C@H](O)[C@@H]2O)[C@@H]1O` [compound 30, hexasaccharide 30] it was ~1100 µM.
